Results from patent US12466781B2, “Thyromimetics” (Autobahn Therapeutics, Inc., priority 2019, dated 2025).

Tests used:
[1] = biological target: T1, TRβ (Homo sapiens, UniProt P10828); assay: Thyroid-hormone reporter-gene assay (TRβ-Gal4 hybrid, luciferase, HEK293); type: cell-based; settings: Table 2; for T3-SI (selectivity index): calculated as EC50 (TRα)/EC50 (TRβ); for EC50: reporter cells, 24 hr incubation, read-out: TRβ (EC50)
T1 construct: expressed in transfected cells; host or cells: HEK293
T1 sequence (P10828 217-461 limits assumed): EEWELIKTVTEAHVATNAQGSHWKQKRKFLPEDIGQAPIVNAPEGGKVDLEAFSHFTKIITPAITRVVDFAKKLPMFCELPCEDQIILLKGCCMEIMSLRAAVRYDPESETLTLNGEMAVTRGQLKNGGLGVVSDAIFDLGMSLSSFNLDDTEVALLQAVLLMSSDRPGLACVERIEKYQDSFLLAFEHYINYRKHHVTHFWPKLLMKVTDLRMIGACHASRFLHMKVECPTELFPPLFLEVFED
Method: (§1) Compounds were tested for thyroid-hormone receptor activity using TR reporter-gene assays. Reporter cells used in the assays express a TR-receptor hybrid (either TRα or TRβ) in which the native N-terminal DNA binding domain (DBD) has been replaced with that of the yeast Gal4 DBD. The reporter gene, firefly luciferase, is functionally linked to the Gal4 upstream activation sequence (UAS). Both cell lines were derived from human embryonic kidney (HEK293).
(§2) Step 1: A suspension of reporter cells was prepared in cell recovery medium containing 10% charcoal-stripped FBS, and dispensed into assay plates. The plates were pre-incubated for 6 hours in a cell culture incubator (37° C./5% CO2/85% humidity).
(§3) These intermediate stocks were subsequently diluted directly into compound screening medium containing 10% charcoal-stripped FBS to generate “2×-concentration” treatment media (containing 0.2, 0.4 or 0.8% DMSO).
(§4) Step 3: At the end of the pre-incubation period, culture media were discarded from the assay plates, and all wells received 100 μl of compound screening medium. 100 μl of each of the previously prepared “2×-concentration” treatment media were dispensed into duplicate assay wells, thereby achieving the desired final treatment concentrations. The final concentration of DMSO in all assay wells was 0.1, 0.2 or 0.4%. Assay plates were incubated for 24 hr in a cell culture incubator (37° C./5% CO2/85% humidity).
(§5) Step 4: At the 24 h assay endpoint, treatment media were discarded and 100 μl/well of luciferase detection reagent was added. Relative luminometer units (RLUs) were quantified from each assay well.

[2] = biological target: T2, TRα (Homo sapiens, UniProt P10827); assay: Thyroid-hormone reporter-gene assay (TRα-Gal4 hybrid, luciferase, HEK293); type: cell-based; settings: reporter cells, 24 hr incubation; Table 2; read-out: TRα (EC50)
T2 construct: expressed in transfected cells; host or cells: HEK293
T2 sequence (P10827 163-410 isoform P10827-2 limits assumed): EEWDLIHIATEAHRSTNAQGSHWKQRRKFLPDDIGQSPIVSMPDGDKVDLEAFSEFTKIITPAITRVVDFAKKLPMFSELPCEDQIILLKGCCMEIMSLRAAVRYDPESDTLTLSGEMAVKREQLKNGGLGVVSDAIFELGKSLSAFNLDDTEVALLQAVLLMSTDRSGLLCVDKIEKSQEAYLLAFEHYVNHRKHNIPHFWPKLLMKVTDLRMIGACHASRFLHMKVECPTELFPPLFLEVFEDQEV
Method: as §1, §2, §3, §4, §5

| SMILES | T3-SI (selectivity index) [1] | EC50 [1] | EC50 [2] |
| --- | --- | --- | --- |
| O=C(O)COc1cc(Cl)c(Cc2ccc(O)c(Cc3ccc(F)cc3)c2F)c(Cl)c1 [Compound 28, 2-(3,5-dichloro-4-(2-fluoro-3-(4-fluorobenzyl)-4-hydroxybenzyl)phenoxy)acetic acid] | ++ (3×<T3-SI≤30×) | 0.01 to 0.1 µM | 0.01 to 0.1 µM |
| O=C(O)COc1cc(Cl)c(Cc2ccc(O)c(-c3cccc(OC(F)F)c3)c2F)c(Cl)c1 [Compound 24, 2-(3,5-dichloro-4-((3′-(difluoromethoxy)-2-fluoro-6-hydroxy-[1,1′-biphenyl]-3-VI)methyl)phenoxy)acetic acid] | ++ (3×<T3-SI≤30×) | 0.01 to 0.1 µM | 0.1 to 1 µM |
| Cc1cc(OCC(=O)O)c(F)c(C)c1Cc1ccc(O)c(C(C)C)c1 [Compound 58, 2-(2-fluoro-4-(4-hydroxy-3-isopropylbenzyl)-3,5-dimethylphenoxy)acetic acid] | +++ (T3-SI>30×) | 0.01 to 0.1 µM | 0.1 to 1 µM |
| C=C(C)c1cc(OCC(=O)O)cc(Cl)c1Cc1ccc(O)c(C(C)C)c1F [Compound 46, 2-(3-chloro-4-(2-fluoro-4-hydroxy-3-isopropylbenzyl)-5-(prop-1-en-2-yl)phenoxy)acetic acid] | ++ (3×<T3-SI≤30×) | < 0.01 µM | 0.01 to 0.1 µM |
| CCc1cc(OCC(=O)O)cc(Cl)c1Cc1ccc(O)c(C(C)C)c1F [Compound 43, 2-(3-chloro-5-ethyl-4-(2-fluoro-4-hydroxy-3-isopropylbenzyl)phenoxy)acetic acid] | ++ (3×<T3-SI≤30×) | 0.01 to 0.1 µM | 0.01 to 0.1 µM |
| C=Cc1c(F)c(OCC(=O)O)cc(Cl)c1Cc1ccc(O)c(C(C)C)c1 [Compound 67, 2-(5-chloro-2-fluoro-4-(4-hydroxy-3-isopropylbenzyl)-3-vinylphenoxy)acetic acid] | ++ (3×<T3-SI≤30×) | 0.01 to 0.1 µM | 0.1 to 1 µM |
| C=C(C)c1cc(OCC(=O)O)cc(C)c1Cc1ccc(O)c(C(C)C)c1F [Compound 12, 2-(4-(2-fluoro-4-hydroxy-3-isopropylbenzyl)-3-methyl-5-(prop-1-en-2-yl)phenoxy)acetic acid] | ++ (3×<T3-SI≤30×) | < 0.01 µM | 0.01 to 0.1 µM |
| Cc1cc(OCC(=O)O)c(F)c(Cl)c1Cc1ccc(O)c(C(C)C)c1 [Compound 115, 2-(3-chloro-2-fluoro-4-(4-hydroxy-3-isopropylbenzyl)-5-methylphenoxy)acetic acid] | ++ (3×<T3-SI≤30×) | 0.01 to 0.1 µM | 0.1 to 1 µM |
| O=C(O)COc1cc(Cl)c(Cc2ccc(O)c(Cc3ccc(F)cc3)c2)c(Cl)c1F [Compound 83, 2-(3,5-dichloro-2-fluoro-4-(3-(4-fluorobenzyl)-4-hydroxybenzyl)phenoxy)acetic acid] | +++ (T3-SI>30×) | 0.01 to 0.1 µM | 0.1 to 1 µM |
| Cc1cc(OCC(=O)O)cc(C)c1Cc1ccc(O)c(C(C)C)c1F [Compound 2, 2-(4-(2-fluoro-4-hydroxy-3-isopropylbenzyl)-3,5-dimethylphenoxy)acetic acid] | ++ (3×<T3-SI≤30×) | 0.1 to 1 µM | > 1 µM |
| Cc1cc(OCC(=O)O)c(F)c(Cl)c1Cc1ccc(O)c(C(C)C)c1F [Compound 109, 2-(3-chloro-2-fluoro-4-(2-fluoro-4-hydroxy-3-isopropylbenzyl)-5-methylphenoxy)acetic acid] | +++ (T3-SI>30×) | < 0.01 µM | 0.01 to 0.1 µM |
| CC(C)c1c(O)ccc(Cc2c(Cl)cc(OCC(=O)O)c(F)c2Cl)c1F [Compound 97, 2-(3,5-dichloro-2-fluoro-4-(2-fluoro-4-hydroxy-3-isopropylbenzyl)phenoxy)acetic acid] | ++ (3×<T3-SI≤30×) | < 0.01 µM | 0.01 to 0.1 µM |
| O=C(O)COc1cc(Cl)c(Cc2ccc(O)c(-c3cc(OC(F)F)ccc3F)c2F)c(Cl)c1 [Compound 26, 2-(3,5-dichloro-4-((5′-(difluoromethoxy)-2,2′-difluoro-6-hydroxy-[1,1′-biphenyl]-3-VI)methyl)phenoxy)acetic acid] | ++ (3×<T3-SI≤30×) | 0.01 to 0.1 µM | 0.1 to 1 µM |
| CCc1cc(OCC(=O)O)cc(C)c1Cc1ccc(O)c(C(C)C)c1F [Compound 9, 2-(3-ethyl-4-(2-fluoro-4-hydroxy-3-isopropylbenzyl)-5-methylphenoxy)acetic acid] | ++ (3×<T3-SI≤30×) | 0.01 to 0.1 µM | 0.01 to 0.1 µM |
| CCCC(c1ccc(F)cc1)c1cc(Cc2c(Cl)cc(OCC(=O)O)c(F)c2Cl)ccc1O (stereo not drawn) [Compound 85, 2-(3,5-dichloro-2-fluoro-4-(3-(1-(4-fluorophenyl)butyl)-4-hydroxybenzyl)phenoxy)acetic acid] | +++ (T3-SI>30×) | 0.1 to 1 µM | > 1 µM |
| CC(C)c1cc(Cc2c(Cl)cc(OCC(=O)O)c(Cl)c2Cl)ccc1O [Compound 89, 2-(2,3,5-trichloro-4-(4-hydroxy-3-isopropylbenzyl)phenoxy)acetic acid] | ++ (3×<T3-SI≤30×) | 0.01 to 0.1 µM | 0.01 to 0.1 µM |
| Cc1c(F)c(OCC(=O)O)cc(Cl)c1Cc1ccc(O)c(C(C)C)c1 [Compound 118, 2-(5-chloro-2-fluoro-4-(4-hydroxy-3-isopropylbenzyl)-3-methylphenoxy)acetic acid] | +++ (T3-SI>30×) | 0.01 to 0.1 µM | 0.1 to 1 µM |

Second part, the molecule after the results:

| T3-SI (selectivity index) [1] | EC50 [1] | EC50 [2] | SMILES |
| --- | --- | --- | --- |
| ++ (3×<T3-SI≤30×) | < 0.01 µM | 0.01 to 0.1 µM | O=C(O)COc1cc(Cl)c(Cc2ccc(O)c(-c3cc(C(F)(F)F)ccc3F)c2F)c(Cl)c1 [Compound 25, 2-(3,5-dichloro-4-((2,2′-difluoro-6-hydroxy-5′-(trifluoromethyl)-[1,1′-biphenyl]-3-yl)methyl)phenoxy)acetic acid] |
| ++ (3×<T3-SI≤30×) | < 0.01 µM | 0.01 to 0.1 µM | CC(c1ccc(F)cc1)c1c(O)ccc(Cc2c(Cl)cc(OCC(=O)O)cc2Cl)c1F (stereo not drawn) [Compound 30, 2-(3,5-dichloro-4-(2-fluoro-3-(1-(4-fluorophenyl)ethyl)-4-hydroxybenzyl)phenoxy)acetic acid] |
| +++ (T3-SI>30×) | 0.1 to 1 µM | > 1 µM | CCOC(=O)COc1cc(F)c(Cc2ccc(O)c(C(C)C)c2)c(Cl)c1F [Compound 147, ethyl 2-(3-chloro-2,5-difluoro-4-(4-hydroxy-3-isopropylbenzyl)phenoxy)acetate] |
| +++ (T3-SI>30×) | 0.01 to 0.1 µM | 0.1 to 1 µM | Cc1cc(OCC(=O)O)c(F)c(C)c1Cc1ccc(O)c(C(C)C)c1F [Compound 93, 2-(2-fluoro-4-(2-fluoro-4-hydroxy-3-isopropylbenzyl)-3,5-dimethylphenoxy)acetic acid] |
| +++ (T3-SI>30×) | 0.1 to 1 µM | > 1 µM | CC(C)c1cc(Cc2c(Cl)cc(OCC(=O)O)c(F)c2C(C)C)ccc1O [Compound 73, 2-(5-chloro-2-fluoro-4-(4-hydroxy-3-isopropylbenzyl)-3-isopropylphenoxy)acetic acid] |
| ++ (3×<T3-SI≤30×) | 0.1 to 1 µM | 0.1 to 1 µM | CCOC(=O)COc1cc(Cl)c(Cc2ccc(O)c(C(C)C)c2)c(Cl)c1OC [Compound 165, ethyl 2-(3,5-dichloro-4-(4-hydroxy-3-isopropylbenzyl)-2-methoxyphenoxy)acetate] |
| ++ (3×<T3-SI≤30×) | < 0.01 µM | 0.01 to 0.1 µM | Cc1cc(OCC(=O)O)cc(C)c1Cc1ccc(O)c(C(C)c2ccc(F)cc2)c1F (stereo not drawn) [Compound 6, 2-(4-(2-fluoro-3-(1-(4-fluorophenyl)ethyl)-4-hydroxybenzyl)-3,5-dimethylphenoxy)acetic acid] |
| ++ (3×<T3-SI≤30×) | 0.01 to 0.1 µM | 0.01 to 0.1 µM | CNC(=O)COc1cc(Cl)c(Cc2ccc(O)c(C(C)C)c2)c(Cl)c1OC [Compound 167, 2-(3,5-dichloro-4-(4-hydroxy-3-isopropylbenzyl)-2-methoxyphenoxy)-N-methylacetamide] |
